Laboratory results from the NIST ThermoML archive (doi:10.1021/acs.jced.8b00217).
± gives the expanded uncertainty stated by the source.

Key:
[1] = 298.15 K; 101.3 kPa; Liquid; Vibrating tube method
[2] = refractive index (Na D-line) (dimensionless); settings: 298.15 K; 101.3 kPa; Liquid; Standard Abbe refractometry
[3] = relative permittivity at various frequencies (dimensionless); settings: 298.15 K; 101.3 kPa; Liquid; Frequency=0.01 MHz; Coaxial cylinder capacitor
[4] = refractive index (Na D-line) (dimensionless); xn = mol fraction of the nth substance listed; settings: 298.15 K, 101.3 kPa, Liquid, Standard Abbe refractometry
[5] = relative permittivity at various frequencies (dimensionless); xn = mol fraction of the nth substance listed; settings: 298.15 K, 101.3 kPa, Liquid, Frequency=0.01 MHz, Coaxial cylinder capacitor
[6] = xn = mol fraction of the nth substance listed; settings: 298.15 K, 101.3 kPa, Liquid, Vibrating tube method

CCCCCCCCO [octan-1-ol]
Settings | mass density [kg/m3] | refractive index | relative permittivity
[1] | 821.98 ± 1 | – | –
[2] | – | 1.4276 ± 0.0011 | –
[3] | – | – | 9.85 ± 0.55

CCO [ethanol]
Settings | mass density [kg/m3] | refractive index | relative permittivity
[1] | 785.26 ± 1 | – | –
[2] | – | 1.3594 ± 0.001 | –
[3] | – | – | 24.37 ± 0.84

C1CCCCC1 [cyclohexane] + O=C1CCCC1
x2 = 0
Settings | refractive index | relative permittivity
[4] | 1.4235 ± 0.001 | –
[5] | – | 2.02 ± 0.29

CCO [ethanol] + O=C1CCCC1
x2 = 0
Settings | mass density [kg/m3] | refractive index | relative permittivity
[4] | – | 1.3594 ± 0.001 | –
[5] | – | – | 24.37 ± 0.84
[6] | 785.26 ± 1 | – | –

O=C1CCCC1 [cyclopentanone] + CCCCCCO
Settings | mass density, [6] [kg/m3] | refractive index, [4] | relative permittivity, [5]
x1 = 0.1 | 823.87 ± 1.1 | 1.4175 ± 0.0011 | 12.44 ± 0.61
x1 = 0.2 | 832.61 ± 1.1 | 1.4189 ± 0.0011 | 12 ± 0.6
x1 = 0.3 | 842.44 ± 1.1 | 1.4204 ± 0.0011 | 11.68 ± 0.59
x1 = 0.4 | 853.65 ± 1.1 | 1.4221 ± 0.0011 | 11.51 ± 0.59
x1 = 0.5 | 866.02 ± 1.1 | 1.4239 ± 0.0011 | 11.48 ± 0.59
x1 = 0.6 | 879.48 ± 1.1 | 1.4258 ± 0.0011 | 11.59 ± 0.59
x1 = 0.7 | 894.17 ± 1.1 | 1.4279 ± 0.0011 | 11.87 ± 0.59
x1 = 0.8 | 909.92 ± 1.1 | 1.4301 ± 0.0011 | 12.27 ± 0.6
x1 = 0.9 | 926.64 ± 1.1 | 1.4324 ± 0.0011 | 12.83 ± 0.62
x1 = 1 | 944.31 ± 1 | 1.4347 ± 0.0011 | 13.52 ± 0.63

CCCCCCO [hexan-1-ol] + O=C1CCCC1
x2 = 0
Settings | mass density [kg/m3] | refractive index | relative permittivity
[4] | – | 1.4161 ± 0.0011 | –
[5] | – | – | 13.09 ± 0.62
[6] | 815.99 ± 1.2 | – | –

O=C1CCCC1 [cyclopentanone] + CCO
Settings | mass density, [6] [kg/m3] | refractive index, [4] | relative permittivity, [5]
x1 = 0.1 | 811.02 ± 1.1 | 1.3696 ± 0.0011 | 22.42 ± 0.8
x1 = 0.2 | 833.48 ± 1.1 | 1.3793 ± 0.0011 | 20.69 ± 0.77
x1 = 0.3 | 853.69 ± 1.1 | 1.3884 ± 0.0011 | 19.16 ± 0.75
x1 = 0.4 | 871.79 ± 1.1 | 1.3968 ± 0.0011 | 17.78 ± 0.72
x1 = 0.5 | 888.17 ± 1.1 | 1.4046 ± 0.0011 | 16.6 ± 0.7
x1 = 0.6 | 902.91 ± 1.1 | 1.4117 ± 0.0011 | 15.59 ± 0.68
x1 = 0.7 | 915.99 ± 1 | 1.4182 ± 0.0011 | 14.77 ± 0.66
x1 = 0.8 | 927.18 ± 1 | 1.4242 ± 0.0011 | 14.16 ± 0.65
x1 = 0.9 | 936.58 ± 1 | 1.4296 ± 0.0011 | 13.75 ± 0.64
x1 = 1 | 944.31 ± 1 | 1.4347 ± 0.0011 | 13.52 ± 0.63

O=C1CCCC1 [cyclopentanone]
Settings | mass density [kg/m3] | refractive index | relative permittivity
[1] | 944.31 ± 1 | – | –
[2] | – | 1.4347 ± 0.0011 | –
[3] | – | – | 13.52 ± 0.63

CCCCO [butan-1-ol] + O=C1CCCC1
x2 = 0
Settings | mass density [kg/m3] | refractive index | relative permittivity
[4] | – | 1.3971 ± 0.001 | –
[5] | – | – | 17.49 ± 0.71
[6] | 805.92 ± 1 | – | –

CCCCO [butan-1-ol]
Settings | mass density [kg/m3] | refractive index | relative permittivity
[1] | 805.92 ± 1 | – | –
[2] | – | 1.3971 ± 0.001 | –
[3] | – | – | 17.49 ± 0.71

CCCCCCCCCCO [decan-1-ol]
Settings | mass density [kg/m3] | refractive index | relative permittivity
[1] | 826.71 ± 1 | – | –
[2] | – | 1.4352 ± 0.0011 | –
[3] | – | – | 7.74 ± 0.49

CCCCCCCCCCO [decan-1-ol] + O=C1CCCC1
x2 = 0
Settings | mass density [kg/m3] | refractive index | relative permittivity
[4] | – | 1.4352 ± 0.0011 | –
[5] | – | – | 7.74 ± 0.49
[6] | 826.71 ± 1 | – | –

CCCCCCCCO [octan-1-ol] + O=C1CCCC1
x2 = 0
Settings | mass density [kg/m3] | refractive index | relative permittivity
[4] | – | 1.4276 ± 0.0011 | –
[5] | – | – | 9.85 ± 0.55
[6] | 821.98 ± 1 | – | –

O=C1CCCC1 [cyclopentanone] + CCCCCCCCCCO
Settings | mass density, [6] [kg/m3] | refractive index, [4] | relative permittivity, [5]
x1 = 0.1 | 829.38 ± 1 | 1.4345 ± 0.0011 | 7.75 ± 0.49
x1 = 0.2 | 833.22 ± 1 | 1.4339 ± 0.0011 | 7.84 ± 0.49
x1 = 0.3 | 839.24 ± 1 | 1.4335 ± 0.0011 | 8.07 ± 0.5
x1 = 0.4 | 847.47 ± 1 | 1.4333 ± 0.0011 | 8.43 ± 0.51
x1 = 0.5 | 857.91 ± 1.1 | 1.4332 ± 0.0011 | 8.93 ± 0.52
x1 = 0.6 | 870.34 ± 1.1 | 1.4332 ± 0.0011 | 9.56 ± 0.54
x1 = 0.7 | 884.81 ± 1.1 | 1.4333 ± 0.0011 | 10.34 ± 0.56
x1 = 0.8 | 901.52 ± 1.1 | 1.4336 ± 0.0011 | 11.27 ± 0.58
x1 = 0.9 | 921.01 ± 1.1 | 1.4341 ± 0.0011 | 12.31 ± 0.61
x1 = 1 | 944.31 ± 1 | 1.4347 ± 0.0011 | 13.52 ± 0.63

O=C1CCCC1 [cyclopentanone] + CCCCCCCCO
Settings | mass density, [6] [kg/m3] | refractive index, [4] | relative permittivity, [5]
x1 = 0.1 | 827.28 ± 1 | 1.4276 ± 0.0011 | 9.63 ± 0.54
x1 = 0.2 | 833.41 ± 1 | 1.4278 ± 0.0011 | 9.51 ± 0.54
x1 = 0.3 | 841.25 ± 1 | 1.4282 ± 0.0011 | 9.5 ± 0.54
x1 = 0.4 | 850.89 ± 1 | 1.4287 ± 0.0011 | 9.65 ± 0.54
x1 = 0.5 | 862.2 ± 1.1 | 1.4294 ± 0.0011 | 9.94 ± 0.55
x1 = 0.6 | 874.88 ± 1.1 | 1.4302 ± 0.0011 | 10.37 ± 0.56
x1 = 0.7 | 889.18 ± 1.1 | 1.4311 ± 0.0011 | 10.97 ± 0.57
x1 = 0.8 | 905.27 ± 1.1 | 1.4321 ± 0.0011 | 11.69 ± 0.59
x1 = 0.9 | 923.62 ± 1.1 | 1.4333 ± 0.0011 | 12.55 ± 0.61
x1 = 1 | 944.31 ± 1 | 1.4347 ± 0.0011 | 13.52 ± 0.63

O=C1CCCC1 [cyclopentanone] + CCCCO
Settings | mass density, [6] [kg/m3] | refractive index, [4] | relative permittivity, [5]
x1 = 0.1 | 820.75 ± 1.1 | 1.4015 ± 0.0011 | 16.31 ± 0.69
x1 = 0.2 | 835.31 ± 1.1 | 1.4057 ± 0.0011 | 15.37 ± 0.67
x1 = 0.3 | 849.88 ± 1.1 | 1.4098 ± 0.0011 | 14.58 ± 0.65
x1 = 0.4 | 864.47 ± 1.1 | 1.4137 ± 0.0011 | 13.97 ± 0.64
x1 = 0.5 | 878.88 ± 1.1 | 1.4175 ± 0.0011 | 13.5 ± 0.6
x1 = 0.6 | 893.05 ± 1.1 | 1.4212 ± 0.0011 | 13.18 ± 0.62
x1 = 0.7 | 906.81 ± 1.1 | 1.4248 ± 0.0011 | 13.03 ± 0.62
x1 = 0.8 | 920.01 ± 1.1 | 1.4282 ± 0.0011 | 13.04 ± 0.62
x1 = 0.9 | 932.67 ± 1.1 | 1.4315 ± 0.0011 | 13.19 ± 0.62
x1 = 1 | 944.31 ± 1 | 1.4347 ± 0.0011 | 13.52 ± 0.63

O=C1CCCC1 [cyclopentanone] + C1CCCCC1
Settings | refractive index, [4] | relative permittivity, [5]
x1 = 0.03 | 1.4235 ± 0.001 | 2.25 ± 0.3
x1 = 0.05 | 1.4235 ± 0.001 | 2.39 ± 0.31
x1 = 0.1 | 1.4236 ± 0.001 | 2.78 ± 0.32
x1 = 0.15 | 1.4237 ± 0.001 | 3.19 ± 0.34
x1 = 0.2 | 1.4239 ± 0.001 | 3.61 ± 0.36
x1 = 0.3 | 1.4244 ± 0.001 | 4.51 ± 0.39
x1 = 0.4 | 1.4252 ± 0.001 | 5.51 ± 0.42
x1 = 0.5 | 1.4262 ± 0.001 | 6.6 ± 0.46
x1 = 0.6 | 1.4274 ± 0.001 | 7.78 ± 0.49
x1 = 0.7 | 1.4289 ± 0.0011 | 9.06 ± 0.53
x1 = 0.8 | 1.4306 ± 0.0011 | 10.45 ± 0.56
x1 = 0.9 | 1.4325 ± 0.0011 | 11.94 ± 0.6
x1 = 1 | 1.4347 ± 0.0011 | 13.52 ± 0.63

CCCCCCO [hexan-1-ol]
Settings | mass density [kg/m3] | refractive index | relative permittivity
[1] | 815.99 ± 1.2 | – | –
[2] | – | 1.4161 ± 0.0011 | –
[3] | – | – | 13.09 ± 0.62

C1CCCCC1 [cyclohexane]
Settings | mass density [kg/m3] | refractive index | relative permittivity
[1] | 773.89 ± 1 | – | –
[2] | – | 1.4235 ± 0.001 | –
[3] | – | – | 2.02 ± 0.29
